PubChem BioAssay AID248 (DTP/NCI, 2004)
Where “and” joins values, the source holds several entries; their conditions need not be identical. Identical values can stand only once. Inconclusive results and toxic doses are left out. Cut-off read from the data, not from the text of the source: active = T/C of 150% or more; inactive = T/C below 125%.

Test system: L1210 leukemia ip in BDF1 mice, survival T/C
Assay: NCI In Vivo Anticancer Drug Screen. Data for tumor model L1210 Leukemia (intraperitoneal) in B6D2F1 (BDF1) mice
Details: endpoint: mean survival time, higher = longer survival
How it was run: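 Ratio derived from survival: compound-dosed mice over vehicle-dosed mice, all bearing a transplantable tumor.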

[1] = dose: 100.0 mg/kg/injection, schedule: Q04DX002 (ip), vehicle: Klucel (hydroxypropylcellulose) (HPC)
[2] = dose: 200.0 mg/kg/injection, schedule: Q04DX002 (ip), vehicle: Klucel (hydroxypropylcellulose) (HPC)
[3] = dose: 400.0 mg/kg/injection, schedule: Q04DX002 (ip), vehicle: Klucel (hydroxypropylcellulose) (HPC)
[4] = dose: 50.0 mg/kg/injection, schedule: Q01DX009 (ip), vehicle: Klucel (hydroxypropylcellulose) (HPC)
[5] = dose: 100.0 mg/kg/injection, schedule: Q01DX009 (ip), vehicle: Klucel (hydroxypropylcellulose) (HPC)
[6] = dose: 100.0 mg/kg/injection, schedule: Q04DX003 (ip), vehicle: Klucel (hydroxypropylcellulose) (HPC)
[7] = dose: 200.0 mg/kg/injection, schedule: Q01DX009 (ip), vehicle: Klucel (hydroxypropylcellulose) (HPC)
[8] = dose: 200.0 mg/kg/injection, schedule: Q04DX003 (ip), vehicle: Klucel (hydroxypropylcellulose) (HPC)
[9] = dose: 400.0 mg/kg/injection, schedule: Q04DX003 (ip), vehicle: Klucel (hydroxypropylcellulose) (HPC)
[10] = dose: 75.0 mg/kg/injection, schedule: Q01DX001 (ip), vehicle: saline
[11] = dose: 150.0 mg/kg/injection, schedule: Q01DX001 (ip), vehicle: saline
[12] = dose: 100.0 mg/kg/injection, schedule: Q01DX009 (ip), vehicle: saline with Tween-80
[13] = dose: 100.0 mg/kg/injection, schedule: Q04DX003 (ip), vehicle: saline
[14] = dose: 200.0 mg/kg/injection, schedule: Q04DX003 (ip), vehicle: saline
[15] = dose: 400.0 mg/kg/injection, schedule: Q04DX003 (ip), vehicle: saline
[16] = dose: 400.0 mg/kg/injection, schedule: Q01DX009 (ip), vehicle: Klucel (hydroxypropylcellulose) (HPC)
[17] = dose: 25.0 mg/kg/injection, schedule: Q01DX001 (ip), vehicle: Klucel (hydroxypropylcellulose) (HPC)
[18] = dose: 50.0 mg/kg/injection, schedule: Q01DX001 (ip), vehicle: Klucel (hydroxypropylcellulose) (HPC)
[19] = dose: 100.0 mg/kg/injection, schedule: Q01DX001 (ip), vehicle: Klucel (hydroxypropylcellulose) (HPC)
[20] = dose: 100.0 mg/kg/injection, schedule: Q01DX001 (ip), vehicle: saline
[21] = dose: 200.0 mg/kg/injection, schedule: Q01DX001 (ip), vehicle: saline
[22] = dose: 400.0 mg/kg/injection, schedule: Q01DX001 (ip), vehicle: saline
[23] = dose: 75.0 mg/kg/injection, schedule: Q04DX003 (ip), vehicle: saline
[24] = dose: 150.0 mg/kg/injection, schedule: Q04DX003 (ip), vehicle: saline
[25] = dose: 200.0 mg/kg/injection, schedule: Q01DX001 (ip), vehicle: Klucel (hydroxypropylcellulose) (HPC)
[26] = dose: 400.0 mg/kg/injection, schedule: Q01DX001 (ip), vehicle: Klucel (hydroxypropylcellulose) (HPC)

Measured: T/C

CCOC(=O)C/C(C)=N\NC(N)=O
inactive: [1] 104 % of control | [2] 101 % of control | [3] 97 % of control

O=C(Oc1ccc(Cl)cc1)c1ccc(Cl)cc1
inactive: [4] 101 % of control | [5] 94 % of control | [6] 101 % of control | [7] 95 % of control | [8] 99 % of control | [9] 92 % of control

COC(=O)c1ccc(C(=O)O)[n+]([O-])c1
inactive: [5] 93 % of control | [6] 97 % of control | [7] 88 % of control | [8] 103 % of control | [9] 97 % of control

COc1cccc(N2C(=O)CC(=P(c3ccccc3)(c3ccccc3)c3ccccc3)C2=O)c1
inactive: [10] 96 % of control | [11] 95 % of control

COc1ccc(OC)c(NC(=S)N/N=C/c2cccc3ccccc23)c1
inactive: [12] 100 % of control | dose: 200.0 mg/kg/injection, schedule: Q01DX009 (ip), vehicle: saline with Tween-80 95 % of control | dose: 400.0 mg/kg/injection, schedule: Q01DX009 (ip), vehicle: saline with Tween-80 100 % of control

CCN(C(=O)C(F)(F)F)C(C)(C)C(SSSC(c1ccc(Cl)cc1)C(C)(C)N(CC)C(=O)C(F)(F)F)c1ccc(Cl)cc1 (stereo not given)
inactive: dose: 100.0 mg/kg/injection, schedule: Q01DX009 (ip), vehicle: other 94 % of control

COc1ccc2c(c1)CN(C)CC2
inactive: dose: 75.0 mg/kg/injection, schedule: Q01DX001 (ip), vehicle: other 108 % of control

c1ccc(Sc2cc(Sc3ccccc3)c3cccccc2-3)cc1
inactive: dose: 100.0 mg/kg/injection, schedule: Q01DX001 (ip), vehicle: carboxymethylcellulose (CMC) 96 % of control | dose: 200.0 mg/kg/injection, schedule: Q01DX001 (ip), vehicle: carboxymethylcellulose (CMC) 100 % of control | dose: 400.0 mg/kg/injection, schedule: Q01DX001 (ip), vehicle: carboxymethylcellulose (CMC) 87 % of control

O=c1oc2ccccc2c(O)c1Oc1ccccc1
inactive: [13] 98 % of control | [14] 91 % of control | [15] 87 % of control

Cc1cc(C)c(NC(=O)C(Br)C(Br)c2ccccc2)c(C)c1 (stereo not given)
inactive: [5] 98 % of control | [7] 98 % of control | [16] 98 % of control

NC(=O)NC(=O)/C=C/C(=O)O
inactive: dose: 50.0 mg/kg/injection, schedule: Q01DX009 (ip), vehicle: saline with Tween-80 100 % of control | [12] 94 % of control | dose: 100.0 mg/kg/injection, schedule: Q04DX003 (ip), vehicle: saline with Tween-80 92 % of control | dose: 200.0 mg/kg/injection, schedule: Q04DX003 (ip), vehicle: saline with Tween-80 90 % of control

CCCCOCCOCCOc1ccc(C(=O)O)cc1
inactive: dose: 50.0 mg/kg/injection, schedule: Q01DX009 (ip), vehicle: acetone 102 % of control | dose: 100.0 mg/kg/injection, schedule: Q01DX009 (ip), vehicle: acetone 97 % of control | [13] 94 % of control | dose: 200.0 mg/kg/injection, schedule: Q01DX009 (ip), vehicle: acetone 102 % of control | [14] 94 % of control

Nc1nc2c(ncn2-c2ccc(OCCCc3ccccc3)cc2)c(=O)[nH]1
inactive: dose: 1.56 mg/kg/injection, schedule: Q01DX001 (ip), vehicle: saline with Tween-80 97 % of control | dose: 3.13 mg/kg/injection, schedule: Q01DX001 (ip), vehicle: saline with Tween-80 92 % of control | dose: 6.25 mg/kg/injection, schedule: Q01DX001 (ip), vehicle: saline with Tween-80 94 % of control and 87 % of control | dose: 25.0 mg/kg/injection, schedule: Q01DX001 (ip), vehicle: saline with Tween-80 92 % of control and 91 % of control

CC1CCCN(N=Nc2ccc(Br)cc2-c2nc(N)c3cc(Br)ccc3n2)C1 (stereo not given)
inactive: [17] 97 % of control | [18] 105 % of control | [19] 102 % of control

Clc1nc(I)c(Cl)c(C(Cl)(Cl)Cl)n1
inactive: dose: 12.5 mg/kg/injection, schedule: Q01DX001 (ip), vehicle: Klucel (hydroxypropylcellulose) (HPC) 89 % of control | [17] 93 % of control | [18] 89 % of control

O=S(=O)(/C(Br)=C\c1ccccc1)c1ccccc1
inactive: [20] 103 % of control | dose: 100.0 mg/kg/injection, schedule: Q01DX009 (ip), vehicle: saline 104 % of control | [13] 98 % of control | [21] 102 % of control | dose: 200.0 mg/kg/injection, schedule: Q01DX009 (ip), vehicle: saline 110 % of control | [14] 101 % of control | [22] 102 % of control | dose: 400.0 mg/kg/injection, schedule: Q01DX009 (ip), vehicle: saline 98 % of control | [15] 98 % of control

Cc1cc(=S)[nH]c2ccccc12
inactive: [23] 100 % of control | [24] 100 % of control | dose: 300.0 mg/kg/injection, schedule: Q04DX003 (ip), vehicle: saline 100 % of control

C/C(=N\N(C)C)C(=O)OC(C)(C)C
inactive: [13] 107 % of control | [14] 98 % of control | [15] 96 % of control

CC1SC(N)=NC1=O (stereo not given)
inactive: [5] 94 % of control | [13] 108 % of control | [7] 100 % of control | [14] 103 % of control | [16] 100 % of control | [15] 93 % of control

CCCCN=C=NCCC[N+](C)(C)C
inactive: [6] 98 % of control | [8] 107 % of control

Oc1ccc2ccccc2c1C=NCC1CCC(CN=Cc2c(O)ccc3ccccc23)CC1 (stereo not given)
inactive: [20] 91 % of control | [21] 95 % of control | [22] 88 % of control

CCOC(=O)c1cccc2ccc[n+](C)c12
inactive: dose: 37.5 mg/kg/injection, schedule: Q04DX003 (ip), vehicle: saline 91 % of control | [10] 97 % of control | [23] 91 % of control | [11] 97 % of control | [24] 95 % of control

CCCCOC(=O)CC(C(=O)OCCCC)S(=O)(=O)O (stereo not given)
inactive: [20] 96 % of control | [21] 104 % of control | [22] 101 % of control

O=C(CC1OCCO1)c1ccccc1
inactive: dose: 50.0 mg/kg/injection, schedule: Q04DX002 (ip), vehicle: saline 95 % of control | dose: 100.0 mg/kg/injection, schedule: Q04DX002 (ip), vehicle: saline 89 % of control | dose: 200.0 mg/kg/injection, schedule: Q04DX002 (ip), vehicle: saline 95 % of control | dose: 400.0 mg/kg/injection, schedule: Q04DX002 (ip), vehicle: saline 95 % of control

COc1ccc2ccccc2c1C1NC(=O)c2ccccc2N1 (stereo not given)
inactive: [4] 97 % of control | [5] 97 % of control | dose: 150.0 mg/kg/injection, schedule: Q01DX009 (ip), vehicle: Klucel (hydroxypropylcellulose) (HPC) 92 % of control

Cc1cccc(NC(=O)Oc2ccccc2C(N)=O)c1
inactive: [19] 94 % of control | [5] 94 % of control | [1] 94 % of control and 100 % of control | [6] 95 % of control | [25] 95 % of control | [7] 96 % of control | [2] 98 % of control | [8] 95 % of control | [26] 106 % of control | [16] 91 % of control and 92 % of control | [3] 94 % of control and 96 % of control | [9] 93 % of control

Cc1ccc(NC(=S)NNC(=S)NNc2ccccc2)cc1
inactive: [1] 86 % of control | [2] 94 % of control

CCOC(=O)c1cnc(C)nc1N
inactive: [19] 97 % of control | [25] 97 % of control | [26] 92 % of control

O=C(Cl)C12CC3CC(CC(C3)C1)C2
inactive: [1] 111 % of control | [2] 111 % of control | [3] 100 % of control

O=C(O)CNCc1cc(=O)[nH]c(=O)[nH]1
inactive: [13] 94 % of control | [14] 97 % of control | [15] 105 % of control

O=c1[nH]c(Cc2ccccc2)c([N+](=O)[O-])c(=O)[nH]1
inactive: [18] 94 % of control | [19] 103 % of control | [25] 97 % of control

CCN(CC)CCNC(=O)c1cc(N2CCOCC2)ccn1
inactive: [20] 108 % of control | [21] 102 % of control

Clc1ncnc2c1nnn2C1CCCC1
inactive: [20] 101 % of control | [21] 104 % of control
